Assay results published in US9005575B2, “Arg-Gly-Asp-conjugated alpha-melanocyte stimulating hormone hybrid peptide for use in diagnosing and treating melanoma, including metastatic melanoma and methods related to same” (STC.UNM, priority 2009, dated 2015).
Where two headings read alike, the source gives them in different places. Positions of bridges follow the written chain, without caps; N, C: chain ends. Non-standard residues stand in square brackets, D forms with d. Residues, ends and D or L forms follow the SMILES beside them.

Columns and labels:
B16/F1 melanoma cells = test: Clonogenic cytotoxicity; assay type: cell-based, murine; conditions: 6 days post the treatment; for Decrease in clonogenic survival compared to untreated group: 0.1 μM (100 nM), 3 h incubation
Protocol: To determine whether the replacement of the Lys linker with Arg linker affected the clonogenic cytotoxicity of the hybrid peptide, we examined the clonogenic cytotoxic effect of RGD-Arg-(Arg^11)CCMSH in B16/F1 melanoma cells according to our published procedure (17). The B16/F1 cells were seeded in a 6-well plate (200 cells/well) and incubated at 37° C. overnight. […] Control cells were only incubated in the culture medium. After the incubation, the cells were washed with PBS twice and allowed to form colonies over 6 days in the culture medium. The medium was changed every other day. After 6 days, the cells were fixed with methanol:glacial acetic acid (3:1), stained with hematoxylin and visually examined under microscope for survival. Colonies contained more than 50 cells were scored as survivors.

[1] = tested on: B16/F1 murine melanoma cells; test: Specificity of cellular uptake (peptide blockade); assay type: cell-based; conditions: 0.1 μM of blocking peptide, 25° C., 120 min
Protocol: The specificity of cell binding was determined by incubating ^99mTc-RGD-Lys-(Arg^11)CCMSH with or without non-radioactive peptides. After being washed once with binding media, B16/F1 cells in 24-well cell culture plates were incubated with approximately 200,000 cpm of HPLC purified ^99mTc-RGD-Lys-(Arg^11)CCMSH at 25° C. for 120 min (n=4) in the presence of 0.1 μM of RGD-Lys-(Arg^11)CCMSH, NDP-MSH, (Arg^11)CCMSH or RGD in 0.5 ml of binding media, respectively. The reaction media were aspirated after the incubation. The cells were rinsed twice with 0.5 ml of ice-cold pH 7.4, 0.2% BSA/0.01 M PBS and lysed in 0.5 ml of 1 N NaOH for 5 min. The activities associated with cells were measured in a gamma counter. Statistical analysis was performed using the Student's t-test for unpaired data.
The specificity of cellular uptake was determined by incubating ^99mTc-RGD-Arg-(Arg^11)CCMSH with or without non-radioactive peptides. After being washed once with binding medium, B16/F1 cells in 24-well cell culture plates were incubated with approximately 200,000 cpm of HPLC purified ^99mTc-RGD-Arg-(Arg^11)CCMSH at 25° C. for 120 min (n=3) in the presence of 0.1 μM of RGD-Arg-(Arg^11)CCMSH, (Arg^11)CCMSH, RGD or no peptide blockade in 0.5 mL of binding medium, respectively. The reaction medium was aspirated after the incubation. The cells were rinsed twice with 0.5 mL of ice-cold pH 7.4, 0.2% BSA/0.01 M PBS and lysed in 0.5 mL of 1 N NaOH for 5 min. The activities associated with cells were measured in a gamma counter.

MC1 receptor [2] = biological target: T1, MC1 receptor (Mus musculus, UniProt Q01727); conditions: literature value (ref. 8); read-out: MC1 receptor binding affinity; cited from earlier work
T1 construct: host or cells: B16/F1 murine melanoma cells
T1 sequence (Q01727 whole entry): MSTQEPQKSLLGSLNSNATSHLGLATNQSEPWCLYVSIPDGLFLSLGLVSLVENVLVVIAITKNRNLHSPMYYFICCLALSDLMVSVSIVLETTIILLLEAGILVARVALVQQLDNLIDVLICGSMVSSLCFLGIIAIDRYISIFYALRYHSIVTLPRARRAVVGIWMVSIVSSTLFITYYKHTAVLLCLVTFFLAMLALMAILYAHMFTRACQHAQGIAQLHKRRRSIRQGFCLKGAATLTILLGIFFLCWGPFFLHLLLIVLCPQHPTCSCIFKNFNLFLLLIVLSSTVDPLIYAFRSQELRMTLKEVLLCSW

MC1 receptor [3] = biological target: T1, MC1 receptor; test: In vitro competitive binding assay in B16/F1 melanoma cells; set-up: species or system murine; conditions: competition with ^125I-(Tyr^2)-NDP-MSH, 25° C., 2 h, read-out: IC50 value (MC1 receptor binding affinity)
Protocol: The IC50 value of RGD-Lys-(Arg^11)CCMSH was determined according to our previously published procedure (27). B16/F1 cells were harvested and seeded into a 24-well cell culture plate (5×10^5/well) and incubated at 37° C. overnight. After being washed with binding media (MEM with 25 mM HEPES, pH 7.4, 0.2% BSA, 0.3 mM 1,10-phenathroline), the cells were incubated at room temperature (25° C.) for 2 h with approximately 40,000 counts per minute (cpm) of ^125I-(Tyr^2)-NDP-MSH in the presence of increasing concentrations (10^−12 to 10^−5 M) of RGD-Lys-(Arg^11)CCMSH in 0.3 ml of binding media. The reaction media were aspirated after the incubation. […] The activities associated with cells were measured in a Wallac 1480 automated gamma counter (PerkinElmer, NJ). The IC50 value for the peptide was calculated by fitting the data with nonlinear regression using Prism software (GraphPad Software, La Jolla, Calif.).
The IC50 value of RGD-Arg-(Arg^11)CCMSH was determined according to our previously published procedure (17). […] The activities associated with cells were measured in a Wallac 1480 automated gamma counter (PerkinElmer, NJ). The IC50 value for the peptide was calculated using Prism software (GraphPad Software, La Jolla, Calif.).

Row | Compound | Decrease of clonogenic survival compared to untreated control (B16/F1 melanoma cells; 93 μmol, single treatment (3 h incubation), unpublished preliminary studies) [%] | Decrease of cellular uptake of ^99mTc-RGD-Arg-(Arg^11)CCMSH by peptide blockade [1] | Decrease in clonogenic survival compared to untreated group (B16/F1 melanoma cells) [%] | IC50 (MC1 receptor [2]) [nM] | Decrease of cellular uptake of ^99mTc-RGD-Lys-(Arg^11)CCMSH by peptide blockade [1] | IC50 (MC1 receptor [3]) [nM]
1 | CC(C)[C@H](NC(=O)[C@@H]1CCCN1C(=O)[C@H](CCCNC(=N)N)NC(=O)[C@H](CS)NC(=O)[C@H](Cc1c[nH]c2ccccc12)NC(=O)[C@H](CCCNC(=N)N)NC(=O)[C@@H](Cc1ccccc1)NC(=O)[C@H](Cc1c[nH]cn1)NC(=O)[C@H](CCC(=O)O)NC(=O)[C@H](CS)NC(=O)[C@H](CS)NC(=O)[C@H](CCCCN)NC(=O)[C@@H]1CC(=O)N[C@@H](CCCNC(=N)N)C(=O)NCC(=O)N[C@@H](CC(=O)O)C(=O)N[C@H](Cc2ccc(O)cc2)C(=O)N1)C(N)=O [RGD-Lys-(Arg^11)CCMSH] (RGD[dY]DKCCEH[dF]RWCRPV-NH2; lactam N-5; C-terminus assumed) | 65 |  |  |  |  | 
2 | [Cys^3,4,10, D-Phe^7, Arg^11]α-MSH3-13 [(Arg^11)CCMSH, reference compound] |  | 78% | 11 | 1.7 |  | 
3 | Cyclo(Arg-Gly-Asp-DPhe-Val) [RGD, reference compound] |  | didn't reduce | 7 |  | didn't reduce | 
4 | CC(C)[C@H](NC(=O)[C@@H]1CCCN1C(=O)[C@H](CCCNC(=N)N)NC(=O)[C@H](CS)NC(=O)[C@H](Cc1c[nH]c2ccccc12)NC(=O)[C@H](CCCNC(=N)N)NC(=O)[C@@H](Cc1ccccc1)NC(=O)[C@H](Cc1c[nH]cn1)NC(=O)[C@H](CCC(=O)O)NC(=O)[C@H](CS)NC(=O)[C@H](CS)NC(=O)[C@H](CCCNC(=N)N)NC(=O)[C@@H]1CC(=O)N[C@@H](CCCNC(=N)N)C(=O)NCC(=O)N[C@@H](CC(=O)O)C(=O)N[C@H](Cc2ccc(O)cc2)C(=O)N1)C(N)=O [RGD-Arg-(Arg^11)CCMSH] (RGD[dY]DRCCEH[dF]RWCRPV-NH2; lactam N-5; C-terminus assumed) |  | 76% | 62 |  |  | 0.7
